Bounds are passed on as bounds.

For one assay, the target named is T1, human NOX3 (hNOX3) (Homo sapiens, UniProt Q9HBY0).
T1 construct: pLV-CMV-hNOX3-puro (NM_015718.3); host or cells: HEK293 (CLS GmbH), lentiviral transduction
T1 sequence (Q9HBY0 1-568): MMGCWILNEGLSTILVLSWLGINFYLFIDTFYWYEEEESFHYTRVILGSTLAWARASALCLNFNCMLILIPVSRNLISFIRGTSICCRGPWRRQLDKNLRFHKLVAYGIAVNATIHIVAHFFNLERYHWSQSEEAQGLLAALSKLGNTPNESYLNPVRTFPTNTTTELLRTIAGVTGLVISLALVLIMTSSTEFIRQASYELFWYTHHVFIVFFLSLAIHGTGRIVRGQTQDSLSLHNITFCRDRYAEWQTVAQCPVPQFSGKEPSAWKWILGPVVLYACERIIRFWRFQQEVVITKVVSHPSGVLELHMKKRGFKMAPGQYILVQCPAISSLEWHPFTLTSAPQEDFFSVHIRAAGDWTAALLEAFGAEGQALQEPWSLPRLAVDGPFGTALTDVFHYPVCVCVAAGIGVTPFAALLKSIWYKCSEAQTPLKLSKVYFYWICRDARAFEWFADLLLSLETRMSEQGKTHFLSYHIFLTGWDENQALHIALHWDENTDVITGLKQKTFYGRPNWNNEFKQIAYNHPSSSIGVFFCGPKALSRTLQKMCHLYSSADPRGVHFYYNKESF
T1 sequence (P13498 2-195 partner limits assumed): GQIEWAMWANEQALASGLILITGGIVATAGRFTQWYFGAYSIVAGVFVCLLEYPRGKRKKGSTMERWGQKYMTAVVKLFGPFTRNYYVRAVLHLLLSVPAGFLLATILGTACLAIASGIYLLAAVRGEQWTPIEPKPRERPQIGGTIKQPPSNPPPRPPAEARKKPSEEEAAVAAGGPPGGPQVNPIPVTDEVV
The experiment in a line: NOX3 inhibition assay (L-012), HEK293 cells stably overexpressing human NOX3. The assay is classed as cell-based. The conditions noted are these: HEK293-hNOX3, PMA stimulated. From the text:
Plasmids are Purchased from Vectorbuilder. • for HEK-hNOX1 all necessary subunits are cloned accordingly: • pLV-CMV-hNOX1-puro (NM_007052.5) • pLV-CMV-hNOXO1-blas (NM_172168.3) • pLV-CMV-hp22phox-hygro (NM_000101.4) • pLV-CMV-hNOXA1-neo (NM_006647.2) • for HEK-hNOX3 • pLV-CMV-hNOX3-puro (NM_015718.3)
3rd generation lentiviral particles are produced in HEK293 suspension cells by transient transfection of three helper and expression plasmids. Crucial lentivirus supernatants are harvested, clarified by filtration and concentrated by precipitation. Lentivirus titers are determined in transducing units in (TU/mL) by transduction of HT1080 cells and colony forming assay. Parental HEK293 cells, purchased from CLS GmbH, are transduced with replication-incompetent 3rd generation lentiviral particles (MOI 2) and expanded for at least 2 weeks before cryopreservation of tested lots. During cultivation, medium is changed three times per week and cells are sub-cultured at least once per week. Selection antibiotics are added according to the plasmids (1 μg/ml puromycin, 1.5 μg/ml blasticidin, 200 μg/ml G418 and 100 μg/ml hygromycin).
Evaluation of the NOX4 inhibitors on NOX3 activity is assessed in HEK293 cells stably overexpressing human NOX3 (hNOX3).
Cells are seeded in 384 well plates for 2 days. […] Cells are then stimulated with PMA at 0.1 μM to induce NOX3-dependent ROS production. […] Luminescence is measured with an PHERAstar multimode reader.

The target in another assay is T2, human NOX1 (hNOX1) (Homo sapiens, UniProt Q9Y5S8).
T2 construct: pLV-CMV-hNOX1-puro (NM_007052.5); host or cells: HEK293 (CLS GmbH), lentiviral transduction
T2 sequence (Q9Y5S8 1-564): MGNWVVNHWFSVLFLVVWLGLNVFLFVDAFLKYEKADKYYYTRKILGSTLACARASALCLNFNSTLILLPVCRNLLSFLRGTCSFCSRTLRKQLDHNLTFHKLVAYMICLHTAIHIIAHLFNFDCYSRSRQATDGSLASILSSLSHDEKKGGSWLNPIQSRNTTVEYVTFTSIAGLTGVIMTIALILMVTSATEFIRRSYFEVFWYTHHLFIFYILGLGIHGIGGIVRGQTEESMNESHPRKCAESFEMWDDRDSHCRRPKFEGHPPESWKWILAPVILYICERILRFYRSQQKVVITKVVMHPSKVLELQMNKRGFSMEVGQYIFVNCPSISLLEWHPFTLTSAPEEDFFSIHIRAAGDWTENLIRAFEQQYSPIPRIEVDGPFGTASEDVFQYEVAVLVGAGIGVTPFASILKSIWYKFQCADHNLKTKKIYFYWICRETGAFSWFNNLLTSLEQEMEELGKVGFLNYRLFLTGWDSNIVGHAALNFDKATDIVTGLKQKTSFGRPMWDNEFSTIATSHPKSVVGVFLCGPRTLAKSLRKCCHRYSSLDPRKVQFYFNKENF
T2 sequence (P13498 2-195 partner limits assumed): T1 sequence (P13498 2-195 partner limits assumed)
As to the kind of experiment: NOX1 inhibition assay (L-012), HEK293 cells stably overexpressing human NOX1. The conditions noted are these: HEK293-hNOX1, PMA stimulated. The class given is cell-based. The method, boiled down:
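Lentivirally transduced HEK293 stably expressing human NOX1 with NOXO1, NOXA1 and p22phox under antibiotic selection. ROS production read by L-012 chemiluminescence: probe added at 400 μM, cells incubated a further 3 h before luminescence measurement.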

In general, IC50 refers to the concentration needed to halve the response being measured. Higher therefore signals a need for much substance. Turning to `Cc1cc(F)ccc1CSc1nc2ncsc2c(=O)n1-c1ccc(O)nn1` [Example 68], the concentration for half-maximal inhibition (IC50) was greater than 100 µM against human NOX3 (hNOX3) and 11 µM against human NOX1 (hNOX1).
For the compound `O=c1c2scnc2nc(SCc2c(F)cc(F)cc2F)n1-c1cnc(O)cn1` [Example 69, 6-(5-Hydroxypyrazin-2-yl)-5-((2,4,6-trifluorobenzyl)thio)thiazolo[4,5-d]pyrimidin-7(6H)-one], the figures for the IC50 at human NOX3 (hNOX3) and on human NOX1 (hNOX1) were 77.5 µM and greater than 100 µM, respectively.

The values are drawn from patent publication US20240327429A1, “[1,3]Thiazolo[4,5-d]-pyrimidon-7-ones as inhibitors of NOX4” (Boehringer Ingelheim International GmbH, priority 2023, published 2024).
